Results taken from US6358885B1, “Substituted phenylheterocyclic herbicides” (Mississippi State University, priority 1992, dated 2002).

Columns and labels:
Experiment in all cases: Test B preemergence/postemergence greenhouse plant response rating 0 to 10
Settings in all cases: 0 to 10 scale
[1] = tested on: cheatgrass; type: in vivo, Bromus secalinus
Procedure, shortened: (§1)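 Test chemicals were sprayed onto freshly planted seed and, concurrently, onto young plants between the one and four leaf stage. After a twelve- to sixteen-day greenhouse period, each species was visually compared with untreated controls.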

[2] = tested on: wheat; type: in vivo, Triticum aestivum
Procedure, shortened: as §1

[3] = tested on: chickweed; type: in vivo, Stellaria media
Procedure, shortened: as §1

[4] = tested on: crabgrass; type: in vivo, Digitaria spp.
Procedure, shortened: as §1

[5] = tested on: bedstraw; type: in vivo, Galium aparine
Procedure, shortened: as §1

[6] = tested on: purple nutsedge; type: in vivo, Cyperus rotundus
Procedure, shortened: as §1

[7] = tested on: wild buckwheat; type: in vivo, Polygonum convolvulus
Procedure, shortened: as §1

[8] = tested on: morningglory; type: in vivo, Ipomoea hederacea
Procedure, shortened: as §1

[9] = tested on: blackgrass; type: in vivo, Alopecurus myosuroides
Procedure, shortened: as §1

[10] = tested on: velvetleaf; type: in vivo, Abutilon theophrasti
Procedure, shortened: as §1

[11] = tested on: lambsquarters; type: in vivo, Chenopodium album
Procedure, shortened: as §1

[12] = tested on: sorghum; type: in vivo, Sorghum bicolor
Procedure, shortened: as §1

[13] = tested on: barley; type: in vivo, Hordeum vulgare
Procedure, shortened: as §1

[14] = tested on: barnyardgrass; type: in vivo, Echinochloa crus-galli
Procedure, shortened: as §1

[15] = tested on: soybean; type: in vivo, Glycine max
Procedure, shortened: as §1

[16] = tested on: sugar beet; type: in vivo, Beta vulgaris
Procedure, shortened: as §1

[17] = tested on: cotton; type: in vivo, Gossypium hirsutum
Procedure, shortened: as §1

[18] = tested on: rape; type: in vivo, Brassica napus
Procedure, shortened: as §1

[19] = tested on: wild oat; type: in vivo, Avena fatua
Procedure, shortened: as §1

[20] = tested on: rice; type: in vivo, Oryza sativa
Procedure, shortened: as §1

[21] = tested on: corn; type: in vivo, Zea mays
Procedure, shortened: as §1

[22] = tested on: cocklebur; type: in vivo, Xanthium pensylvanicum
Procedure, shortened: as §1

[23] = tested on: giant foxtail; type: in vivo, Setaria faberii
Procedure, shortened: as §1

CCC(=O)Oc1cc(-c2nn3c(c2Cl)CCCC3)c(F)cc1Cl [Compound 47]
2: Plant response rating, Wheat ([2]; Rate 200 g/ha, PREEMERGENCE) | Plant response rating, Chickweed ([3]; Rate 200 g/ha, PREEMERGENCE) | Plant response rating, Nutsedge ([6]; POSTEMERGENCE, Rate 50 g/ha) | Plant response rating, Blackgrass ([9]; PREEMERGENCE, Rate 50 g/ha) | Plant response rating, Velvetleaf ([10]; PREEMERGENCE, Rate 50 g/ha) | Plant response rating, Cotton ([17]; Rate 200 g/ha, PREEMERGENCE) | Plant response rating, Rape ([18]; Rate 200 g/ha, PREEMERGENCE) | Plant response rating, Cocklebur ([22]; PREEMERGENCE, Rate 50 g/ha)
4: Plant response rating, Cheatgrass ([1]; POSTEMERGENCE, Rate 50 g/ha) | Plant response rating, Cheatgrass ([1]; POSTEMERGENCE, Rate 200 g/ha) | Plant response rating, Blackgrass ([9]; POSTEMERGENCE, Rate 50 g/ha) | Plant response rating, Velvetleaf ([10]; Rate 200 g/ha, PREEMERGENCE) | Plant response rating, Sorghum ([12]; Rate 200 g/ha, POSTEMERGENCE) | Plant response rating, Barley ([13]; POSTEMERGENCE, Rate 200 g/ha) | Plant response rating, Rice ([20]; POSTEMERGENCE, Rate 50 g/ha) | Plant response rating, Corn ([21]; POSTEMERGENCE, Rate 50 g/ha) | Plant response rating, Giant foxtail ([23]; POSTEMERGENCE, Rate 50 g/ha)
7: Plant response rating, Lambsquarter ([11]; POSTEMERGENCE, Rate 50 g/ha) | Plant response rating, Soybean ([15]; POSTEMERGENCE, Rate 50 g/ha) | Plant response rating, Soybean ([15]; Rate 200 g/ha, POSTEMERGENCE)
8: Plant response rating, Nutsedge ([6]; Rate 200 g/ha, POSTEMERGENCE) | Plant response rating, Blackgrass ([9]; POSTEMERGENCE, Rate 200 g/ha) | Plant response rating, Velvetleaf ([10]; POSTEMERGENCE, Rate 50 g/ha) | Plant response rating, Sugar beet ([16]; Rate 200 g/ha, PREEMERGENCE)
0: Plant response rating, Cheatgrass ([1]; PREEMERGENCE, Rate 50 g/ha) | Plant response rating, Cheatgrass ([1]; Rate 200 g/ha, PREEMERGENCE) | Plant response rating, Wheat ([2]; PREEMERGENCE, Rate 50 g/ha) | Plant response rating, Chickweed ([3]; PREEMERGENCE, Rate 50 g/ha) | Plant response rating, Crabgrass ([4]; PREEMERGENCE, Rate 50 g/ha) | Plant response rating, Crabgrass ([4]; Rate 200 g/ha, PREEMERGENCE) | Plant response rating, Nutsedge ([6]; PREEMERGENCE, Rate 50 g/ha) | Plant response rating, Nutsedge ([6]; Rate 200 g/ha, PREEMERGENCE) | Plant response rating, Wild buckwheat ([7]; PREEMERGENCE, Rate 50 g/ha) | Plant response rating, Sorghum ([12]; PREEMERGENCE, Rate 50 g/ha) | Plant response rating, Sorghum ([12]; Rate 200 g/ha, PREEMERGENCE) | Plant response rating, Barley ([13]; PREEMERGENCE, Rate 50 g/ha) | Plant response rating, Barley ([13]; Rate 200 g/ha, PREEMERGENCE) | Plant response rating, Barnyardgrass ([14]; PREEMERGENCE, Rate 50 g/ha) | Plant response rating, Barnyardgrass ([14]; Rate 200 g/ha, PREEMERGENCE) | Plant response rating, Soybean ([15]; PREEMERGENCE, Rate 50 g/ha) | Plant response rating, Soybean ([15]; Rate 200 g/ha, PREEMERGENCE) | Plant response rating, Cotton ([17]; PREEMERGENCE, Rate 50 g/ha) | Plant response rating, Wild oat ([19]; PREEMERGENCE, Rate 50 g/ha) | Plant response rating, Rice ([20]; PREEMERGENCE, Rate 50 g/ha) | Plant response rating, Rice ([20]; Rate 200 g/ha, PREEMERGENCE) | Plant response rating, Corn ([21]; PREEMERGENCE, Rate 50 g/ha) | Plant response rating, Corn ([21]; Rate 200 g/ha, PREEMERGENCE) | Plant response rating, Giant foxtail ([23]; PREEMERGENCE, Rate 50 g/ha)
1: Plant response rating, Morningglory ([8]; PREEMERGENCE, Rate 50 g/ha) | Plant response rating, Sugar beet ([16]; PREEMERGENCE, Rate 50 g/ha) | Plant response rating, Rape ([18]; PREEMERGENCE, Rate 50 g/ha)
9: Plant response rating, Chickweed ([3]; POSTEMERGENCE, Rate 50 g/ha) | Plant response rating, Chickweed ([3]; POSTEMERGENCE, Rate 200 g/ha) | Plant response rating, Bedstraw ([5]; POSTEMERGENCE, Rate 50 g/ha) | Plant response rating, Bedstraw ([5]; PREEMERGENCE, Rate 50 g/ha) | Plant response rating, Bedstraw ([5]; Rate 200 g/ha, PREEMERGENCE) | Plant response rating, Wild buckwheat ([7]; Rate 200 g/ha, PREEMERGENCE) | Plant response rating, Morningglory ([8]; POSTEMERGENCE, Rate 50 g/ha) | Plant response rating, Velvetleaf ([10]; Rate 200 g/ha, POSTEMERGENCE) | Plant response rating, Lambsquarter ([11]; PREEMERGENCE, Rate 50 g/ha) | Plant response rating, Lambsquarter ([11]; Rate 200 g/ha, PREEMERGENCE) | Plant response rating, Barnyardgrass ([14]; POSTEMERGENCE, Rate 200 g/ha) | Plant response rating, Cocklebur ([22]; POSTEMERGENCE, Rate 200 g/ha)
5: Plant response rating, Barley ([13]; POSTEMERGENCE, Rate 50 g/ha) | Plant response rating, Rice ([20]; Rate 200 g/ha, POSTEMERGENCE) | Plant response rating, Corn ([21]; POSTEMERGENCE, Rate 200 g/ha) | Plant response rating, Giant foxtail ([23]; Rate 200 g/ha, PREEMERGENCE)
6: Plant response rating, Wheat ([2]; Rate 200 g/ha, POSTEMERGENCE) | Plant response rating, Crabgrass ([4]; POSTEMERGENCE, Rate 200 g/ha) | Plant response rating, Barnyardgrass ([14]; POSTEMERGENCE, Rate 50 g/ha) | Plant response rating, Rape ([18]; Rate 200 g/ha, POSTEMERGENCE) | Plant response rating, Cocklebur ([22]; POSTEMERGENCE, Rate 50 g/ha) | Plant response rating, Giant foxtail ([23]; Rate 200 g/ha, POSTEMERGENCE)
10: Plant response rating, Bedstraw ([5]; POSTEMERGENCE, Rate 200 g/ha) | Plant response rating, Wild buckwheat ([7]; POSTEMERGENCE, Rate 50 g/ha) | Plant response rating, Wild buckwheat ([7]; Rate 200 g/ha, POSTEMERGENCE) | Plant response rating, Morningglory ([8]; Rate 200 g/ha, POSTEMERGENCE) | Plant response rating, Lambsquarter ([11]; Rate 200 g/ha, POSTEMERGENCE) | Plant response rating, Sugar beet ([16]; POSTEMERGENCE, Rate 50 g/ha) | Plant response rating, Sugar beet ([16]; Rate 200 g/ha, POSTEMERGENCE) | Plant response rating, Cotton ([17]; POSTEMERGENCE, Rate 50 g/ha) | Plant response rating, Cotton ([17]; POSTEMERGENCE, Rate 200 g/ha)
3: Plant response rating, Wheat ([2]; POSTEMERGENCE, Rate 50 g/ha) | Plant response rating, Crabgrass ([4]; POSTEMERGENCE, Rate 50 g/ha) | Plant response rating, Morningglory ([8]; Rate 200 g/ha, PREEMERGENCE) | Plant response rating, Blackgrass ([9]; Rate 200 g/ha, PREEMERGENCE) | Plant response rating, Sorghum ([12]; POSTEMERGENCE, Rate 50 g/ha) | Plant response rating, Rape ([18]; POSTEMERGENCE, Rate 50 g/ha) | Plant response rating, Wild oat ([19]; POSTEMERGENCE, Rate 50 g/ha) | Plant response rating, Wild oat ([19]; Rate 200 g/ha, POSTEMERGENCE) | Plant response rating, Cocklebur ([22]; Rate 200 g/ha, PREEMERGENCE)
